# Data from paper PMC12615485, “New dengue virus inhibitors targeting NS3-NS5 interaction identified by in silico screening” (Frontiers in Microbiology, 2025).
# “Also recorded” adds a separate entry of the source. Where two headings read alike, the source gives them in different places.
# Legend:
# [1] = molecular target: NS3-NS5 interaction (NS3 f.l. binding to coated 6His-NS5_270–900) (Dengue virus type 2, UniProt P14340); assay: ELISA-based NS3-NS5 interaction assay; set-up: species or system DENV-2; conditions: for IC50: read-out: In vitro activity IC50
# Method: Nunc Maxisorp microplates (Thermo Fisher Scientific) were coated with 400 ng/well of 6His-NS5_270–900, or GST protein as a control, in PBS for 3 h at 37 °C and then blocked with 5% (wt/v) bovine serum albumin (BSA, Merck Life Science) in PBS overnight at 4 °C. Blocked wells were incubated at room temperature (RT) for 2 h with increasing amounts of NS3 f.l. or GST–NS3_172–618. 6His-NS5_270–900-coated plates were also incubated with increasing concentration of GST, as a control. After washing with PBS containing 0.3% Tween 20 (Fisher Scientific, Waltham, MA, United States), the NS3-NS5 interaction was detected by incubating the plates with the anti-NS3 monoclonal antibody (GT2811 clone, Genetex, Irvine, CA, United States) diluted 1:6,000 in PBS + 2% (v/v) FBS (Thermo Fisher Scientific) for 1 h at RT. The unbound primary antibody was removed by further washes with PBS + 0.3% Tween 20 and the secondary goat anti-mouse HRP-conjugated antibody (GenScript Biotech) at a dilution of 1:8,000 in PBS + 2% FBS was then added. After incubation for 1 h at RT and following washes, the colorimetric substrate 3,3′,5,5′-tetramethylbenzidine (TMB, SeraCare Life Sciences, Milford, MA, United States) was added to each well and absorbance was read at 450 nm by an ELISA plate reader (Tecan Infinite 200 PRO, Mannedorf, Switzerland).
# To test the inhibitory effect of compounds on NS3-NS5 interaction, 6His-NS5_270–900-coated wells were incubated with a fixed amount of NS3 f.l. (200 ng) along with increasing concentrations of test compounds or DMSO as a control. To exclude non-specific inhibition of compounds due to colloidal aggregation, the inhibitory activities of compounds were tested in the presence or the absence of 0.002% Triton X-100 (Fisher Scientific), a condition which reverses and prevents the colloidal formation of organic molecules ([McGovern et al., 2003]). All the compound concentrations were tested at least in duplicate.
# DENV-3 (H-87 strain) = assay: Viral RNA reduction assay (RT-qPCR) in Vero cells; format: cell-based; conditions: DENV-3, Vero cells, RT-qPCR at 72 h p.i.
# Method: (§1) For viral RNA reduction assays with DENV serotypes 1 to 4, Vero cells were seeded at a density of 1 × 10^5 cells per well in 24-well plates. The next day, cells were infected at 37 °C with the different viruses in serum-free DMEM at the multiplicity of infection (MOI) of 0.001 and plates were rocked every 15 min. At the end of incubation, the viral inoculum was removed, and medium with 2% FBS containing various concentrations of test compounds was added. Viral RNA was isolated from the culture supernatant at 72 h p.i., using the PureLink Viral RNA/DNA Mini kit (Invitrogen, Waltham, MA, United States), according to the manufacturer’s instructions. Viral RNA was quantified using the One-Step RT-PCR kit Dengue Virus subtypes 1, 2, 3 and 4 PCRmax (Cole Parmer Instrument, Saint Neots, United Kingdom), according to the manufacturer’s instructions, on a 7,000 Real-time PCR platform (Applied Biosystems, Waltham, MA, United States).
# DENV-2 (NGC strain) = assay: Viral RNA reduction assay (RT-qPCR) in Vero cells; format: cell-based; conditions: DENV-2, Vero cells, RT-qPCR at 72 h p.i.
# Method: as §1
# DENV-4 (H-241 strain) = assay: Viral RNA reduction assay (RT-qPCR) in Vero cells; format: cell-based; conditions: DENV-4, Vero cells, RT-qPCR at 72 h p.i.
# Method: as §1
# DENV-1 (TH-Sman strain) = assay: Viral RNA reduction assay (RT-qPCR) in Vero cells; format: cell-based; conditions: DENV-1, Vero cells, RT-qPCR at 72 h p.i.
# Method: as §1
# SARS-CoV-2 M^pro = SARS-CoV-2 M^pro (Severe acute respiratory syndrome coronavirus 2, UniProt P0DTD1); conditions: MST binding check, up to 125 μM compound concentration
# [2] = molecular target: NS3-hel (NHS-NS3_177–618) (Dengue virus type 2, UniProt P14340); assay: Microscale thermophoresis (MST) binding to labeled NS3-hel; set-up: species or system DENV-2; conditions: same test concentrations (serial dilutions from 250 μM), 60% LED power
# Text: (§2) To obtain the purified helicase portion of NS3 (6His-NS3_177–618) and the main protease of SARS-CoV-2 (6His-M^pro) used for the MST analysis, we followed previously described protocols ([Celegato et al., 2023]; [Mercorelli et al., 2022]). The 6His–NS5 RdRp270–900 protein was expressed and purified as described above. For MST studies, 6His-NS5_270–900, 6His-NS3_177–618, and 6His-M^pro were fluorescently labeled using NanoTemper Protein labeling kit RED-NHS 2nd generation (MO-L011, NanoTemper Technologies GmbH, Munich, Germany). Protein and dye concentrations were determined by absorption spectroscopy using NanoDrop™ One spectrophotometer (ThermoFisher Scientific), considering, at 280 nm, ε = 171,350 M^–1cm^1 for recombinant NS5, ε = 66,140 M^–1cm^1 for NS3, ε = 32,890 M^–1cm^1 for M^pro, respectively. The ε = 195,000 M^1cm^1 at 650 nm was considered for the RED-NHS fluorophore, with a correction factor of 0.04. The degree of labeling (DOL) was calculated according to the manufacturer’s instructions, yielding a value of 0.63 for NHS-NS5, 0.98 for NHS-NS3, and 0.60 for NHS-M^pro, respectively. […] In all experiments, signal quality was monitored by the Monolith device to detect possible ligand auto-fluorescence, aggregation, or target protein adsorption to capillaries. Experiments were performed in triplicates and analyzed with the MO. […]
# [3] = molecular target: NS5-RdRp (NHS-NS5_270–900) (Dengue virus type 2, UniProt P14340); assay: Microscale thermophoresis (MST) binding to labeled NS5-RdRp; set-up: species or system DENV-2; conditions: medium MST power, 40% LED power
# Text: as §2
# DENV-2 NGC strain = assay: Plaque reduction assay (PRA) in Vero cells; format: cell-based; conditions: for EC50: PRA in Vero cells, read-out: Antiviral activity EC50; for SI (selectivity index): ratio between CC50 and EC50
# MTT cytotoxicity assay = conditions: African green monkey, Vero cells
# Vero cells = assay: MTT cytotoxicity assay; conditions: read-out: Cytotoxicity CC50; best analogues of hit 3, in-house synthesized hit 3 as control; MTT in Vero cells at 72 h
compound,measurement,setting,value
Cc1ccc(NC(=S)NNC(=O)c2ccccc2O)cc1 [Hit 3],IC50,"[1]; analogues of hit 3, in-house synthesized hit 3 as control, 50% inhibition of NS3-NS5 binding in ELISA",19.4 ± 7.8 µM
same,inhibition at 100 µM,"[1]; fixed concentration of 100 μM, compared with DMSO control",≥ 50%
same,IC50,"[1]; selected hits, concentration that decreased the NS3-NS5 binding by 50% in ELISA",15.6 ± 4.5 µM
same,viral RNA synthesis,DENV-3 (H-87 strain),concentration-dependent reduction in viral RNA synthesis
same,viral RNA synthesis,DENV-2 (NGC strain),concentration-dependent reduction in viral RNA synthesis
same,viral RNA synthesis,DENV-4 (H-241 strain),concentration-dependent reduction in viral RNA synthesis
same,viral RNA synthesis,DENV-1 (TH-Sman strain),concentration-dependent reduction in viral RNA synthesis
same,binding to SARS-CoV-2 M^pro,SARS-CoV-2 M^pro,No binding was detected
same,binding to NS3-hel,[2],not able to detect the binding; also recorded: no binding was observed
same,Kd,[3],28.8 ± 4.5 µM
same,EC50,"DENV-2 NGC strain; Dengue virus, DENV2, Vero, best analogues of hit 3, in-house synthesized hit 3 as control, NGC strain",1.8 ± 0.6 µM
same,EC50,"DENV-2 NGC strain; Dengue virus, DENV2, Vero, selected hits, 50% inhibition of viral plaque formation, DENV-2",1.93 µM
same,SI (selectivity index),DENV-2 NGC strain; best analogues of hit 3,>130
same,EC50,"DENV-2 NGC strain; selected hits, 50% inhibition of viral plaque formation, DENV-2",1.9 ± 0.3 µM
same,SI (selectivity index),DENV-2 NGC strain; selected hits,>130
same,CC50 at 72 h,MTT cytotoxicity assay,> 250 µM
same,CC50,Vero cells,> 250 µM
